In ChEMBL document CHEMBL4814022, “Enantiomeric 4'-truncated 6'-fluoro-3-deazaneplanocin and its 3-bromo derivative: Synthesis and antiviral properties, including Ebola and Marburg” (Bioorg Med Chem Lett, 2021):
pEC50: −log10 of the molar value. Activity calls are given as the source filed them. The calls are words filed in the database; no cut-off is given here.

Key:
[1] = Selectivity index, ratio of EC50 for antiviral activity against Marburgvirus Angola infected in African green monkey Vero cells to CC50 for African green monkey Vero cells; type: toxicity; conditions: read-out: Ratio CC50/EC50
Human adenovirus 5 = assay: Antiviral activity against Human adenovirus 5 infected in human A549 cells; type: functional, organism-based
[2] = Selectivity index, ratio of EC50 for antiviral activity against Norovirus infected in human HG23 cells by visible analysis to CC50 for human HG23 cells; type: toxicity, cell-based
Zaire ebolavirus = assay: Antiviral activity against Zaire ebola virus infected in African green monkey Vero cells; type: functional, organism-based
[3] = Selectivity index, ratio of EC50 for antiviral activity against Measles virus infected in African green monkey Vero cells by visible analysis to CC50 for African green monkey Vero cells; type: toxicity; conditions: read-out: Ratio CC50/EC50
Tacaribe virus = assay: Antiviral activity against Tacaribe virus infected in African green monkey Vero cells; type: functional, organism-based; conditions: Mammarenavirus tacaribeense
Junin virus = assay: Antiviral activity against Junin virus infected in African green monkey Vero cells; type: functional, organism-based; conditions: Mammarenavirus juninense
West Nile virus = assay: Antiviral activity against West Nile virus infected in African green monkey Vero 76 cells; type: functional, organism-based
Measles morbillivirus [4] = assay: Antiviral activity against Measles virus infected in African green monkey Vero cells by visible analysis; type: functional, organism-based
Murine norovirus = assay: Antiviral activity against Murine norovirus infected in mouse RAW264.7 cells; type: functional, organism-based
[5] = Selectivity index, ratio of EC50 for antiviral activity against Measles virus infected in African green monkey Vero cells to CC50 for African green monkey Vero cells; type: toxicity; conditions: read-out: Ratio CC50/EC50
Rift Valley fever virus = assay: Antiviral activity against Rift Valley fever virus infected in African green monkey Vero 76 cells; type: functional, organism-based
[6] = Cytotoxicity against African green monkey Vero cells; type: cell-based; conditions: chlorocebus sabaeus
Marburgvirus = assay: Antiviral activity against Marburgvirus Angola infected in African green monkey Vero cells; type: functional, organism-based; conditions: Orthomarburgvirus
[7] = system: Venezuelan equine encephalitis virus; assay: Antiviral activity against Venezuelan equine encephalitis virus infected in African green monkey Vero 76 cells; type: functional, organism-based
[8] = Cytotoxicity against human HG23 cells; type: cell-based
dengue virus type 2 = assay: Antiviral activity against Dengue virus 2 infected in African green monkey Vero 76 cells; type: functional, organism-based
Enterovirus A71 = assay: Antiviral activity against Human enterovirus 71 infected in African green monkey Vero 76 cells; type: functional, organism-based
Measles morbillivirus [9] = assay: Antiviral activity against Measles virus infected in African green monkey Vero cells by neutral red assay; type: functional, organism-based
Yellow fever virus = assay: Antiviral activity against Yellow fever virus infected in African green monkey Vero 76 cells; type: functional, organism-based
Norovirus = assay: Antiviral activity against Norovirus infected in human HG23 cells; type: functional, organism-based
[10] = system: Japanese encephalitis virus; assay: Antiviral activity against Japanese encephalitis virus infected in African green monkey Vero 76 cells; type: functional, organism-based
Punta Toro virus = assay: Antiviral activity against Punta Toro virus infected in African green monkey Vero 76 cells; type: functional, organism-based
Pichinde virus = assay: Antiviral activity against Pichinde virus infected in African green monkey Vero cells; type: functional, organism-based
[11] = Selectivity index, ratio of CC50 for African green monkey Vero cells to EC50 for antiviral activity against Ebola virus infected in African green monkey Vero cells; type: toxicity; conditions: read-out: Ratio CC50/EC50
Influenza A virus = assay: Antiviral activity against Influenza A virus (H1N1) infected in dog MDCK cells; type: functional, organism-based
Hepatitis B virus = assay: Antiviral activity against Hepatitis B virus infected in human HepG2.2.15 cells; type: functional, organism-based
Chikungunya virus = assay: Antiviral activity against Chikungunya virus infected in African green monkey Vero 76 cells; type: functional, organism-based
BK polyomavirus = assay: Antiviral activity against BK polyomavirus infected in human HFF cells; type: functional, organism-based; conditions: Betapolyomavirus hominis
[12] = Selectivity index, ratio of EC50 for antiviral activity against BK polyomavirus infected in human HFF cells by visible analysis to CC50 for human HFF cells; type: toxicity, cell-based; conditions: read-out: Ratio CC50/EC50
Human alphaherpesvirus 1 = assay: Antiviral activity against HSV-1 infected in human HFF cells; type: functional, organism-based
Lassa virus = assay: Antiviral activity against Lassa virus infected in African green monkey Vero cells; type: functional, organism-based; conditions: Mammarenavirus lassaense
Measles morbillivirus [13] = assay: Antiviral activity against Measles virus infected in African green monkey Vero 76 cells; type: functional, organism-based
[14] = Cytotoxicity against human HFF cells; type: cell-based
Ebolavirus = assay: Antiviral activity against Ebola virus infected in African green monkey Vero 76 cells; type: functional, organism-based

Structure (SMILES) | selectivity ratio [1] | pEC50 (Zaire ebolavirus) | Activity (Tacaribe virus) | Activity (West Nile virus) | selectivity ratio [5] | Activity (Rift Valley fever virus) | CC50 [6] [µM] | pEC50 (Marburgvirus) | Activity [7] | CC50 [8] [µM] | Activity (dengue virus type 2) | Activity (Enterovirus A71) | pEC50 (Measles morbillivirus [9]) | Activity (Yellow fever virus) | pEC50 (Norovirus) | Activity (Pichinde virus) | selectivity ratio [11] | Activity (Influenza A virus) | Activity (Chikungunya virus) | also measured
Nc1nccc2c1ncn2[C@@H]1C(F)=C[C@@H](O)[C@H]1O | 27 | 6.92 | inactive | inactive | 36 | inactive | ≥ 14 | 6.28 | inactive | > 100 | inactive | inactive | 5.44 | inactive | 5.57 | inactive | 117 | inactive | inactive | Activity (Human adenovirus 5): inactive; selectivity ratio ([2]; read-out: Ratio CC50/EC50): > 37; selectivity ratio [3]: 10; Activity (Junin virus): inactive; pEC50 (Measles morbillivirus [4]): 5.38; Activity (Murine norovirus): inactive; Activity [10]: inactive; Activity (Punta Toro virus): inactive; Activity (Hepatitis B virus): inactive
Nc1ccn([C@@H]2O[C@H](CO)[C@@H](O)[C@H]2F)c(=O)n1 | – | – | – | – | > 91 | – | – | – | – | – | – | – | 5.96 | – | – | – | – | – | – | –
Nc1ncc(Br)c2c1ncn2[C@@H]1C(F)=C[C@@H](O)[C@H]1O | 420 | 6.96 | inactive | inactive | 7.9 | inactive | ≥ 9.5 | 7.00 | inactive | > 100 | inactive | inactive | 5.92 | inactive | 5.19 | inactive | 381 | inactive | inactive | Activity (Human adenovirus 5): inactive; selectivity ratio ([2]; read-out: Ratio CC50/EC50): > 16; selectivity ratio [3]: 6.7; Activity (Junin virus): inactive; pEC50 (Measles morbillivirus [4]): 5.74; Activity (Murine norovirus): inactive; Activity [10]: inactive; Activity (Punta Toro virus): inactive; Activity (Hepatitis B virus): inactive
NC(=O)c1nc(F)cnc1O [FAVIPIRAVIR] | > 6.5 | 4.18 | – | – | – | – | > 1000 | 3.81 | – | – | – | – | – | – | – | – | 15 | – | – | –
Nc1ncc(Br)c2c1ncn2[C@H]1C(F)=C[C@H](O)[C@@H]1O | – | – | inactive | inactive | – | inactive | – | – | inactive | – | inactive | inactive | – | inactive | – | inactive | – | inactive | inactive | pEC50 (BK polyomavirus): 4.46; EC90 (BK polyomavirus): 145 µM; selectivity ratio [12]: > 4; Activity (Human alphaherpesvirus 1): inactive; Activity (Lassa virus): inactive; Activity (Measles morbillivirus [13]): inactive; CC50 [14]: > 150 µM; Activity (Ebolavirus): inactive
C[C@@]1(O)[C@H](O)[C@@H](CO)O[C@H]1n1ccc(N)nc1=O | – | – | – | – | – | – | – | – | – | > 300 | – | – | – | – | 5.19 | – | – | – | – | selectivity ratio [2]: > 47
Nc1nccc2c1ncn2[C@H]1C(F)=C[C@H](O)[C@@H]1O | – | – | inactive | inactive | – | inactive | – | – | inactive | – | inactive | inactive | – | inactive | – | inactive | – | inactive | inactive | pEC50 (BK polyomavirus): 4.64; selectivity ratio [12]: > 7; Activity (Human alphaherpesvirus 1): inactive; Activity (Lassa virus): inactive; Activity (Measles morbillivirus [13]): inactive; CC50 [14]: > 150 µM; Activity (Ebolavirus): inactive
